Test results from US20240315244A1, “ANTIVIRAL COATING AGENT, ANTIVIRAL AGENT, LAMINATED BODY, AND PACKAGE OR CONTAINER” (National Institute for Materials Science, priority 2021, published 2024).

Assay: solubility in organic solvents
Assay type: physicochemical

O=C(OCC1OC(OC(=O)c2cc(O)c(O)c(OC(=O)c3cc(O)c(O)c(O)c3)c2)C(OC(=O)c2cc(O)c(O)c(OC(=O)c3cc(O)c(O)c(O)c3)c2)C(OC(=O)c2cc(O)c(O)c(OC(=O)c3cc(O)c(O)c(O)c3)c2)C1OC(=O)c1cc(O)c(O)c(OC(=O)c2cc(O)c(O)c(O)c2)c1)c1cc(O)c(O)c(OC(=O)c2cc(O)c(O)c(O)c2)c1 (centres unmarked) [tannic acid, Tannic acid]
solubility in low-polarity solvents (low-polarity solvents, such as ethyl acetate): insoluble | solubility in polar solvents (polar solvents, such as NPM or MEK): soluble
